Laboratory results reported in publication PMC8956739, “A synthetic lipopeptide targeting top-priority multidrug-resistant Gram-negative pathogens” (Nature Communications, 2022).
≈ marks a conversion by molar mass, not a printed value. Where “and” joins values, the source holds several entries; their conditions need not be identical. Equal values may be shown once. Read-outs that look alike come from different tables or passages of the source. Residues, ends and D or L forms follow the SMILES beside them.

Experiments:
[1] = test system: P. aeruginosa ATCC 27853; assay: Neutropenic mouse bloodstream infection model; format: in vivo; settings: single IV dose 4 mg/kg; for Log10 CFU/mL blood at 4 h, Mean / Δlog10 CFU/mL blood (mean) / Log10 CFU/mL blood at 4 h, single mouse: 4 h; for Δlog10 CFU/mL blood (mean): treated minus control, mean of replicates; for Δlog10 CFU/mL blood (mean) / Log10 CFU/mL blood at 4 h, single mouse / Delta Log10 CFU/mL blood at 4 h, single mouse: 4 mg/kg; for Delta Log10 CFU/mL blood at 4 h, single mouse: treated mouse minus mean of vehicle mice
Summary of the method: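 Female Swiss mice made neutropenic with cyclophosphamide (150 mg/kg day −4, 100 mg/kg day −1), infected IV with 50 µL of 4 × 10^8 CFU/mL. Lipopeptide 4 mg/kg (free base) IV at 2 h post-inoculation, n = 3. Efficacy = Δlog10 CFU/mL blood versus saline at 4 h post-dose.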

[2] = Cell viability after 24 h treatment; format: cell-based, human; settings: human, KCNJ16 knockout HK-2 cells (kidney proximal tubular), Cell viability, KCNJ16 KO, KCNJ16 knockout HK-2 cells, 24 h, Fig. 6b
Description: (§1) Fig. 6 Transcriptomic changes in human kidney proximal tubular HK-2 cells following treatments with polymyxin B (PMB), colistin (COL), F287, F319, and F365. a Numbers of differentially expressed genes. Distinctive intersections are color-coded. b Cell viability difference (two-tailed Student’s t-test, n = 4 biologically independent cells, Benjamini–Hochberg adjusted P-values) between wild-type HK-2 and KCNJ16 knockout (KO) cells following 24 h treatment with lipopeptides. n.s., not significant; ^*adjusted P < 0.05, ^**adjusted P < 0.01, ^***adjusted P < 0.001. Data are shown as mean ± s.d. and individual data points. c Extracted transcriptional regulatory network from Signor database with 1-step neighbor constraints (enlarged for detail). Source data are provided as a Source Data file.

[3] = test system: MDR clinical isolates of P. aeruginosa (n = 213, 55 carbapenem-resistant); format: cell-based, Pseudomonas aeruginosa
Summary of the method: (§2)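 MICs came from broth microdilution in cation-adjusted Mueller–Hinton broth against clinical isolates. For surfactant binding, P. aeruginosa ATCC 27853 was additionally tested with 10% Survanta® (v/v, 2.5 mg/mL phospholipids) added to the polymyxin-containing broth.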

[4] = test system: P. aeruginosa FADDI-PA025; format: cell-based, Pseudomonas aeruginosa
Summary of the method: as §2

[5] = test system: P. aeruginosa ATCC 27853; format: cell-based, Pseudomonas aeruginosa
Summary of the method: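 Read-out is the minimum inhibitory concentration, obtained by serially diluting compound in cation-adjusted Mueller–Hinton medium and exposing each isolate in microdilution format.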

[6] = test system: P. aeruginosa FADDI-PA038; format: cell-based, Pseudomonas aeruginosa
Summary of the method: as §2

[7] = test system: Swiss mice; assay: Acute toxicity in mice (maximum tolerated dose, IV bolus); format: in vivo, mouse; settings: for MTD, single replicate: replicates 1-4
Description: Lipopeptide solutions were prepared in 0.9% saline and stored at 4 °C before use. Swiss mice (female, 7-week-old, 22–28 g) were used in the study. A mouse was administered an intravenous bolus of the lipopeptide (mg/kg free base) through a lateral tail vein (≤0.1 mL). After the injection, the mouse was released back into the cage and monitored for clinical signs of toxicity from 0 to 24 h after injection as follows: every 10 min in the first 2 h, every half hour from 2 to 4 h, every hour from 4 to 12 h, and every 2 h from 12 to 24 h.

[8] = test system: Swiss mice, kidney; assay: Nephrotoxicity in mice (kidney histopathology); format: in vivo, mouse; settings: for Kidney histopathology (SQS Score): 72 mg/kg/d subcutaneously in six divided doses every 2 h, n = 3
Summary of the method: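 Female Swiss mice (7-week-old, 22–28 g) received lipopeptides in saline either s.c. at 12 mg/kg ×6 every 2 h (total 72 mg/kg, n = 3) or i.p. at 20 or 25 mg/kg ×6 every 2 h (total 120 mg/kg, n = 6; 150 mg/kg, n = 3). Right kidney collected 20 h after last dose, fixed in 10% buffered formalin (pH 7.4), histology scored blinded.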

[9] = test system: KCNJ16 knockout HK-2 cells; assay: Cell viability after 24 h treatment; format: cell-based, human; settings: KCNJ16 knockout HK-2 cells, 24 h, Fig. 6b
Description: as §1

[10] = Rep1, replicate 1, read-out: Cell viability, KCNJ16 KO, Rep1
[11] = Rep2, replicate 2, read-out: Cell viability, KCNJ16 KO, Rep2
[12] = Rep3, replicate 3, read-out: Cell viability, KCNJ16 KO, Rep3
[13] = Rep4, replicate 4, read-out: Cell viability, KCNJ16 KO, Rep4
[14] = MDR clinical isolates of (n = 213, 55 carbapenem-resistant)

Row | Molecule | Log10 CFU/mL blood at 4 h, Mean [1] | Δlog10 CFU/mL blood (mean) [1] | Log10 CFU/mL blood at 4 h, single mouse [1] | Delta Log10 CFU/mL blood at 4 h, single mouse [1] | viability at 24 h [2, 10] | viability at 24 h [2, 11] | viability at 24 h [2, 12] | viability at 24 h [2, 13] | MIC P. aeruginosa FADDI-PA025 ([4]; FADDI-PA025) | MIC P. aeruginosa ATCC 27853 ([5]; ATCC 27853) | MIC, No Survanta ([5]; ATCC 27853) | MIC P. aeruginosa FADDI-PA038 ([6]; FADDI-PA038) | MTD, single replicate [7] | Kidney histopathology (SQS Score) [8] | Kidney histopathology, mice with the SQS score ([8]; mouse, in vivo) | other results
1 | CCCCCCCC(=O)N[C@@H](CCN)C(=O)N[C@H](C(=O)N[C@@H](CN)C(=O)N[C@H]1CCNC(=O)[C@H]([C@@H](C)O)NC(=O)[C@H](CCN)NC(=O)[C@H](CCN)NC(=O)[C@H](CC)NC(=O)[C@@H](CC(C)C)NC(=O)[C@H](CCN)NC1=O)[C@@H](C)O [Lipopeptide F287] (HELM PEPTIDE1{[CCCCCCCC(=O)[*:2]].[Dab].T.[NC[C@H](N[*:1])C(=O)[*:2]].[Dab].[Dab].[dL].[Abu].[Dab].[Dab].T}$PEPTIDE1,PEPTIDE1,5:R3-11:R2$$$V2.0) | 5.02 Log10 CFU/mL blood | −2.42 log10 CFU/mL blood | 5.21 Log10 CFU/mL blood and 4.68 Log10 CFU/mL blood and 5.18 Log10 CFU/mL blood | -2.23 Log10 CFU/mL blood and -2.77 Log10 CFU/mL blood and -2.27 Log10 CFU/mL blood | 91.7% | 77.1% | 82.8% | 69.6% | 2 µg/mL (≈ 1.8 µM) | 0.5 µg/mL (≈ 0.449 µM) | 1 µg/mL (≈ 0.898 µM) | 0.5 µg/mL (≈ 0.449 µM) | 6.6 mg/kg | 0 (SQS 0 = no significant change (overall score, <1)) | 3/3 | MIC50 [3, 14]: 1 µg/mL (≈ 0.898 µM); MIC90 [3, 14]: 1 µg/mL (≈ 0.898 µM); Number of isolates ([3]; isolates with MIC 0.05 μg/mL (so in the source)): 0; Number of isolates ([3]; isolates with MIC 0.125 μg/mL (so in the source)): 0; Number of isolates ([3]; isolates with MIC 0.25 μg/mL (so in the source)): 7; Number of isolates ([3]; isolates with MIC 0.5 μg/mL (so in the source)): 26; Number of isolates ([3]; isolates with MIC 1 μg/mL (so in the source)): 168; Number of isolates ([3]; isolates with MIC 2 μg/mL (so in the source)): 9; Number of isolates ([3]; isolates with MIC 4 μg/mL (so in the source)): 0; Number of isolates ([3]; isolates with MIC 8 μg/mL (so in the source)): 1; Number of isolates ([3]; isolates with MIC 16 μg/mL (so in the source)): 0; Number of isolates ([3]; isolates with MIC 32 μg/mL (so in the source)): 2; Number of isolates ([3]; isolates with MIC 64 μg/mL (so in the source)): 0; Number of isolates ([3]; isolates with MIC >64 μg/mL (so in the source)): 0; Kidney histological damage, mice with the given grade ([8]; mouse, in vivo, ip, 120 mg/kg/day): 2/6
2 | Colistin [reference compound] | 5.05 Log10 CFU/mL blood | -2.39 log10 CFU/mL blood | 5.25 Log10 CFU/mL blood and 4.89 Log10 CFU/mL blood and 5.02 Log10 CFU/mL blood | -2.19 Log10 CFU/mL blood and -2.56 Log10 CFU/mL blood and -2.42 Log10 CFU/mL blood | – | – | – | – | – | – | – | – | 6 mg/kg and 5.8 mg/kg and 5 mg/kg | +5 (SQS + 5 = severe damage (overall score, >60)) | 3/3 | Δlog10 CFU/mL blood (mean) ([1]; listed as COL): −2.39 log10 CFU/mL blood; Cell viability, KCNJ16 KO, Rep2 ([9]; replicate 2): 81.0179; Cell viability, KCNJ16 KO, Rep3 ([9]; replicate 3): 91.8189; Cell viability, KCNJ16 KO, Rep4 ([9]; replicate 4): 66.4023; MIC P. aeruginosa FADDI-PA025 ([4]; MDR clinical isolate): 2 µg/mL; MIC P. aeruginosa ATCC 27853 [5]: 0.5 µg/mL; increase of MIC in the presence of lung surfactant ([5]; 10% Survanta vs none): 8 fold; MIC, 10% Survanta ([5]; P. aeruginosa ATCC 27853, 10% Survanta): 8 µg/mL; MIC, No Survanta ([5]; P. aeruginosa ATCC 27853, no surfactant): 1 µg/mL; MIC P. aeruginosa FADDI-PA038 ([6]; carbapenem-resistant isolate): 1 µg/mL; average maximum tolerated dose (MTD) ([7]; single IV bolus dose, n = 4): 5.3 mg/kg
3 | CCCCCCCC(=O)N[C@@H](CCN)C(=O)N[C@H](C(=O)N[C@@H](CCN)C(=O)N[C@H]1CCNC(=O)[C@H]([C@@H](C)O)NC(=O)[C@H](CCN)NC(=O)[C@H](CCN)NC(=O)[C@H](CC)NC(=O)[C@@H](CC(C)C)NC(=O)[C@H](CCN)NC1=O)[C@@H](C)O [Lipopeptide F319] (HELM PEPTIDE1{[CCCCCCCC(=O)[*:2]].[Dab].T.[Dab].[Dab].[Dab].[dL].[Abu].[Dab].[Dab].T}$PEPTIDE1,PEPTIDE1,5:R3-11:R2$$$V2.0) | 4.01 Log10 CFU/mL blood | −3.44 log10 CFU/mL blood | 3.87 Log10 CFU/mL blood and 4.06 Log10 CFU/mL blood and 4.10 Log10 CFU/mL blood | -3.57 Log10 CFU/mL blood and -3.38 Log10 CFU/mL blood and -3.35 Log10 CFU/mL blood | 104% | 95.5% | 91.1% | 92.6% | 4 µg/mL (≈ 3.55 µM) | 0.5 µg/mL (≈ 0.443 µM) | 1 µg/mL (≈ 0.887 µM) | 4 µg/mL (≈ 3.55 µM) | – | +1 (SQS + 1 = mild damage (overall score, 1 to <15)) | 1/3 | –
